# Source: the Deep4Chem optical property database
# Assay: solvent given as SMILES
compound,measurement,setting,value
FC(F)(F)c1ccc2oc3nc4oc5ccc(-n6c7ccccc7c7ccccc76)cc5c4cc3c2c1,absorption maximum,in ClC(Cl)Cl,342 nm
c1ccc2c(C3=C(c4cccc5ccccc45)c4cccc5c4c(cc4nc6ccccc6nc45)O3)cccc2c1,absorption maximum,in ClCCl,486 nm
Cc1ccc(C)c(C2=C3C=CC(=[N+](C)C)C=C3[Si](C)(C)c3cc(N(C)C)ccc32)c1,absorption maximum,in O,646 nm
COc1cc(OC)c2cc(-c3cccc(-c4cc5c(OC)cc(OC)cc5oc4=O)c3)c(=O)oc2c1,absorption maximum,in ClC(Cl)Cl,352 nm
N#Cc1c(/C=C/c2ccc(N(c3ccccc3)c3ccccc3)cc2)cc(-c2ccccc2)cc1N1CCCCC1,absorption maximum,in CS(C)=O,398 nm
CCc1ccc(/C=C/c2ccc(-c3nnc(-c4ccc(-c5cc6ccccc6s5)cc4)o3)cc2)cc1,absorption maximum,in CC#N,342 nm
same,absorption maximum,in CC(C)=O,347 nm
same,absorption maximum,in CCCCCCCC,341 nm
same,absorption maximum,in CCCCCCCCCCO,357 nm
same,absorption maximum,in CCCCCCCCO,357 nm
same,absorption maximum,in CCCCCO,354 nm
same,absorption maximum,in CCCO,347 nm
same,absorption maximum,in CN(C)C=O,355 nm
same,absorption maximum,in CO,326 nm
same,absorption maximum,in CS(C)=O,350 nm
CCc1c(C)c2n(c1C)[B-](F)(F)[N+]1=C(C=C3c4ccccc4-c4ccccc43)C=CC1=C2C,absorption maximum,in C1CCCCC1,589 nm
CCCCn1c(-c2ccc(-c3nnc(-c4ccc5ccccc5c4)o3)cc2)nc2c3ccccc3c3ccccc3c21,absorption maximum,in ClCCl,363 nm
S=P1(c2ccccc2)c2cccc3ccc4ccc1n4c23 (stereo unspecified),absorption maximum,in ClCCl,407 nm
C/N=N/C,absorption maximum,in CCO,340 nm
CN(C)c1ccc(-c2cc(-c3ccc(C#N)cc3)nn2C)cc1,absorption maximum,in C1CCCCC1,288 nm
same,absorption maximum,in CC#N,292 nm
same,absorption maximum,in CCOC(C)=O,290 nm
same,absorption maximum,in CCOCC,289 nm
same,absorption maximum,in CN(C)C=O,295 nm
same,absorption maximum,in Cc1ccccc1,292 nm
same,absorption maximum,in ClCCl,292 nm
CCCCN1C(=O)c2c(Br)c(Br)c3c4c(Br)c(Br)c5c6c(c(Br)c(Br)c(c7c(Br)c(Br)c(c2c37)C1=O)c64)C(=O)N(CCCC)C5=O,absorption maximum,in ClC(Cl)Cl,538 nm
CCN(CC)c1ccc(/C=N/c2cc3nc4ccccc4nc3cc2/N=C/c2ccc(N(CC)CC)cc2O)c(O)c1,absorption maximum,in CC#N,451 nm
same,absorption maximum,in CN(C)C=O,488 nm
same,absorption maximum,in ClCCl,476 nm
COc1ccc(N(c2ccc(OC)cc2)c2ccc3c(c2)C2(c4cc(N(c5ccc(OC)cc5)c5ccc(OC)cc5)ccc4C=C3)c3ccccc3-c3ccccc32)cc1,absorption maximum,in ClCCl,414 nm
CCOC(=O)C1=C(C(=O)OCC)C2(c3ccccc3-c3c(Br)cc(Br)cc32)C2(/C=C/c3ccc(Cl)cc3)c3cc(OC)c(OC)cc3CCN12 (stereo unspecified),absorption maximum,in ClCCl,329 nm
O=c1oc2ccccc2c2c1c(=O)oc1cc(O)c3ccccc3c12,absorption maximum,in CS(C)=O,441 nm
same,absorption maximum,in ClCCl,442 nm
O=C1c2ccc(N(c3ccc(-c4ccccc4)cc3)c3ccc(-c4ccccc4)cc3)cc2C(=O)c2ccc(N(c3ccc(-c4ccccc4)cc3)c3ccc(-c4ccccc4)cc3)cc21,absorption maximum,in Cc1ccccc1,464 nm
CC(C)(C)c1ccc2ccc3cccc4ccc1c2c34,absorption maximum,in CCCCCC,338 nm
same,absorption maximum,in CO,338 nm
same,absorption maximum,in ClCCl,341 nm
CN(C)c1ccc(-c2ccc(-c3cc(N4CCCCC4)c(C#N)c4c3-c3ccccc3CC4)cc2)cc1,absorption maximum,in C1CCCCC1,353 nm
same,absorption maximum,in C1CCOC1,342 nm
same,absorption maximum,in CN(C)C=O,350 nm
same,absorption maximum,in CS(C)=O,342 nm
same,absorption maximum,in Cc1ccccc1,360 nm
same,absorption maximum,in ClC(Cl)Cl,348 nm
C#CCOc1ccc(/C=C/C2=[N+]3C(=C(c4ccc(N5CCCCC5)cc4)c4c(C)cc(C)n4[B-]3(F)F)C(C)=C2)cc1,absorption maximum,in CO,568 nm
F[B-]1(F)n2c(ccc2-c2cccs2)C(C(F)(F)F)=C2C=CC(c3cccs3)=[N+]21,absorption maximum,in CCCCCC,665 nm
CN1C(=CC2=C([O-])C(=CC3=[N+](C)c4ccccc4C3(C)C)C2=C(C#N)C#N)C(C)(C)c2ccccc21,absorption maximum,in ClC(Cl)Cl,684 nm
CC(C)(C)NC1=CC2=c3cc(NC(C)(C)C)c4nc(C(F)(F)C(F)(F)C(F)(F)F)nc5c(NC(C)(C)C)cc(c3c54)C3=CC(NC(C)(C)C)=C4N=C(C(F)(F)C(F)(F)C(F)(F)F)N=C1C4C32 (stereo unspecified),absorption maximum,in C1CCOC1,646 nm
CCCCCCCCCCC(CCCCCCCCCC)Cn1c2cc(-c3ccc(C(C)(C)C)cc3)c3cccc4c5ccc6c7cc(-c8cc(C(C)(C)C)cc(C(C)(C)C)c8)n8c7c(c7cc1c(c5c76)c2c34)=C1C=CC(c2cc(C(C)(C)C)cc(C(C)(C)C)c2)=[N+]1[B-]8(F)F,absorption maximum,in Cc1ccccc1,780 nm
Cc1ccc(-c2oc3cccc4c5c(-c6ccc(C)cc6)c(=N)oc6cccc(c2c34)c65)cc1,absorption maximum,in ClC(Cl)Cl,400 nm
CCCC1=Cc2nc1ccc1[nH]c(cc1CCC)c1nc(c(NC(=O)CCCC(=O)O)cc3[nH]c2cc3CCC)C(CCC)=C1,absorption maximum,in ClCCl,636 nm
CC1(C)c2ccccc2N(c2ccc(-c3cc(C#N)c(C#N)cc3-c3ccc(N4c5ccccc5C(C)(C)c5ccccc54)cc3)cc2)c2ccccc21,absorption maximum,in Cc1ccccc1,384 nm
c1ccc(C2=Nc3cccc4[n+]3[B-](c3ccccc3)(N2)NC(c2ccccc2)=N4)cc1,absorption maximum,in ClCCl,440 nm
CCCCN1c2ccccc2Sc2cc(/C=C\c3cc(=O)oc4ccc(C)cc34)ccc21,absorption maximum,in ClC(Cl)Cl,423 nm
C[n+]1cc2ccc3c[n+](C)cc4ccc(c1)c2c34,absorption maximum,in CC#N,418 nm
CCCCC1(c2ccccc2)Nc2c(-c3ccc(N(C)c4ccccc4)cc3)ccc(-c3ccc(N(C)c4ccccc4)cc3)c2N=C1c1ccccc1 (stereo unspecified),absorption maximum,in ClC(Cl)Cl,380 nm
F[B-]1(F)n2c(c3cccc4cccc2c43)=Nc2cccc[n+]21,absorption maximum,in C1CCOC1,468 nm
same,absorption maximum,in CC#N,460 nm
same,absorption maximum,in CCCCCC,473 nm
same,absorption maximum,in Cc1ccccc1,472 nm
same,absorption maximum,in ClCCl,438 nm
COc1ccc(C2=C3C=C(/C=C/C(=O)OC(C)(C)C)C=[N+]3[B-](F)(F)n3cccc32)cc1,absorption maximum,in ClCCl,536 nm
F[B-]1(F)n2cccc2C(c2c3ccccc3cc3ccccc23)=C2C=CC=[N+]21,absorption maximum,in CC#N,502 nm
same,absorption maximum,in CCCCCC,505 nm
same,absorption maximum,in CCO,503 nm
same,absorption maximum,in CN(C)C=O,506 nm
same,absorption maximum,in Cc1ccccc1,508 nm
same,absorption maximum,in ClCCl,506 nm
COc1ccc(-c2nc(N)nc(C#N)c2C#N)cc1OC,absorption maximum,in C1COCCO1,347 nm
same,absorption maximum,in CC#N,359 nm
same,absorption maximum,in CC(C)=O,348 nm
same,absorption maximum,in CCO,350 nm
same,absorption maximum,in CCOC(C)=O,356 nm
same,absorption maximum,in CO,346 nm
N#CC1=C(c2ccc(-c3cccs3)s2)CC1,absorption maximum,in C1CCOC1,366 nm
same,absorption maximum,in CC#N,364 nm
same,absorption maximum,in CCCCCC,361 nm
same,absorption maximum,in CCO,367 nm
same,absorption maximum,in OCCOCCO,371 nm
same,absorption maximum,in c1ccncc1,372 nm
COc1cc2c(cc1OC)C1=C[C@H](c3ccc(C)cc3)C3(C(C#N)=C(C#N)N1CC2)c1cc(Br)ccc1-c1ccc(Br)cc13,absorption maximum,in ClCCl,315 nm
F[B-]1(F)OC(c2ccc(N3CCCCC3)cc2)=Cc2cccc[n+]21,absorption maximum,in ClC(Cl)Cl,421 nm
CC1(C)c2ccccc2N(c2ccc3c(c2)Oc2ccccc2S3(=O)=O)c2ccccc21,absorption maximum,in Cc1ccccc1,356 nm
CCCCCCCCCCCCCCCCCCOc1ccc([B-]23NC(c4ccccc4)=Nc4cccc([n+]42)N=C(c2ccccc2)N3)cc1,absorption maximum,in ClCCl,431 nm
COc1cc2c3cc(OC)c(OC)cc3c3cc4c(C)cc(=O)oc4cc3c2cc1OC,absorption maximum,in C1CCOC1,366 nm
same,absorption maximum,in CO,364 nm
same,absorption maximum,in CS(C)=O,370 nm
same,absorption maximum,in Cc1ccccc1,366 nm
same,absorption maximum,in ClC(Cl)Cl,368 nm
C=Cc1cc2ccc(OC)cc2oc1=O,absorption maximum,in CC#N,333 nm
COc1cc(-c2ncc(-c3ccncc3)o2)cc(OC)c1OC,absorption maximum,in ClCCl,326 nm
N#Cc1ccc(/C=C/c2ncc(-c3ccccc3)o2)cc1,absorption maximum,in ClCCl,360 nm
CC(C)(C)NC1=C2C=CC=[N+]2[B-](F)(F)n2cccc21,absorption maximum,in C1CCCCC1,428 nm
same,absorption maximum,in CC(C)=O,409.5 nm
same,absorption maximum,in CCO,412.5 nm
same,absorption maximum,in CCOC(C)=O,412 nm
same,absorption maximum,in CO,410 nm
same,absorption maximum,in OCC(F)(F)F,406 nm
N#Cc1cc(/C=C/c2ccc(N(c3ccccc3)c3ccccc3)cc2)ccc1/C=C/c1ccc(/C=C/c2ccc(N(c3ccccc3)c3ccccc3)cc2)cc1C#N,absorption maximum,in ClCCl,447 nm
c1ccc2cc(-n3c4ccccc4c4ccccc43)ccc2c1,absorption maximum,in C1CCCCC1,318 nm
same,absorption maximum,in C1CCOC1,320 nm
same,absorption maximum,in CC#N,321 nm
same,absorption maximum,in CCO,320 nm
same,absorption maximum,in CCOC(C)=O,318 nm
same,absorption maximum,in CCOCC,319 nm
same,absorption maximum,in CO,319 nm
same,absorption maximum,in Cc1ccccc1,319 nm
same,absorption maximum,in ClC(Cl)Cl,321 nm
Cc1nc2c(cc3c4c(cccc42)C(=O)OC3=O)o1,absorption maximum,in CCO,360 nm
c1ccc2c(-c3cc(-c4nccs4)nc(-c4nccs4)c3)cccc2c1,absorption maximum,in CC#N,324 nm
same,absorption maximum,in CCCCCC,325 nm
same,absorption maximum,in CO,325 nm
same,absorption maximum,in ClC(Cl)Cl,330 nm
CCCCCCCCCCCCOc1cc2c3c(ccc4c5c(NC6CCCCC6)cc6c7c(ccc(c1c34)c75)C(=O)N(C1CCCCC1)C6=O)C(=O)N(C1CCCCC1)C2=O,absorption maximum,in ClC(Cl)Cl,640 nm
CN(C)c1ccc(/C=C/c2cc[n+](CCC[n+]3ccc(/C=C/c4ccc(N(C)C)cc4)cc3)cc2)cc1,absorption maximum,in CC1COC(=O)O1,485 nm
same,absorption maximum,in CC#N,488 nm
same,absorption maximum,in CC(C)=O,484 nm
same,absorption maximum,in CC(C)O,499 nm
same,absorption maximum,in CCO,500 nm
same,absorption maximum,in CN(C)C=O,485 nm
same,absorption maximum,in CO,494 nm
same,absorption maximum,in CS(C)=O,485 nm
same,absorption maximum,in ClC(Cl)Cl,501 nm
same,absorption maximum,in O,466 nm
same,absorption maximum,in c1ccncc1,498 nm
COc1ccc(-n2nc(C(=O)N3CCCC3)c(N3CCCC3)n2)cc1,absorption maximum,in CC#N,328 nm
same,absorption maximum,in CCCCCC,332 nm
same,absorption maximum,in CCO,328 nm
same,absorption maximum,in CN(C)C=O,334 nm
same,absorption maximum,in ClC(Cl)Cl,331 nm
CC(C)(C)c1ccc2c(c1)c1cc(C(C)(C)C)ccc1n2-c1ccc(N(c2ccc(-c3ccc(-c4ccc(N(c5ccc(-n6c7ccc(C(C)(C)C)cc7c7cc(C(C)(C)C)ccc76)cc5)c5ccc(-n6c7ccc(C(C)(C)C)cc7c7cc(C(C)(C)C)ccc76)cc5)cc4)c4nsnc34)cc2)c2ccc(-n3c4ccc(C(C)(C)C)cc4c4cc(C(C)(C)C)ccc43)cc2)cc1,absorption maximum,in ClCCl,462 nm
